The values that follow come from PubChem BioAssay (NCI).

Some test systems named below: SK-MEL-5 melanoma; SNB-75 CNS; HOP-92 NSCLC; SK-MEL-2 melanoma; NCI-H226 lung; EKVX NSCLC; MDA-MB-435; SF-268 CNS; ACHN renal; NCI-H522 lung; DU-145 prostate.
Common to all, as to assay: NCI-60 cell line screen, 48 h

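Results reflect a 48-hour exposure of cells in 96-well plates to compound at five concentrations. GI50 marks 50% less growth. TGI: concentration producing complete growth inhibition.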 Where only a bound is given, the exact number is not on record here.

Take `NC(=Nc1ccc(O)cc1)S(=O)O`: the TGI with SK-MEL-5 melanoma, in the assay with SNB-75 CNS, in the assay with HOP-92 NSCLC, in the assay on SK-MEL-2 melanoma, in the assay with NCI-H226 lung and with EKVX NSCLC was greater than 100 µM throughout. Besides, the TGI in the assay with MDA-MB-435, in the assay with SF-268 CNS, in the assay on ACHN renal, with NCI-H522 lung and in the assay with DU-145 prostate was greater than 100 µM in each case.

As to `Cc1cc(NS(=O)(=O)c2ccc(Nc3c4ccccc4nc4ccc(C(=O)Nc5ccc(S(N)(=O)=O)cc5)cc34)cc2)no1`, the TGI in the assay with SK-MEL-5 melanoma, with SNB-75 CNS, with HOP-92 NSCLC, in the assay with SK-MEL-2 melanoma, in the assay with NCI-H226 lung and with EKVX NSCLC was greater than 100 µM in each case. In addition, the TGI with MDA-MB-435, in the assay on SF-268 CNS, in the assay on ACHN renal, in the assay with NCI-H522 lung and in the assay on DU-145 prostate was greater than 100 µM each time.

As for `NC(Cc1ccccc1)(C(=O)O)C(=O)O`, the TGI in the assay on SK-MEL-5 melanoma, in the assay with HOP-92 NSCLC, in the assay with SK-MEL-2 melanoma, in the assay with NCI-H226 lung, in the assay on EKVX NSCLC and with MDA-MB-435 was greater than 100 µM each time. The TGI with SF-268 CNS, with ACHN renal, with NCI-H522 lung and with DU-145 prostate was greater than 100 µM in each case.

Regarding `CN(CCCNC(=O)c1nn(-c2ccc(Cl)cc2Cl)c2c1ccc1ccccc12)CCCNC(=O)c1nn(-c2ccc(Cl)cc2Cl)c2c1ccc1ccccc12`, the TGI in the assay with SK-MEL-5 melanoma came to 3.42 µM; with SNB-75 CNS it was 3.18 µM; in the assay on HOP-92 NSCLC, 3.52 µM; with SK-MEL-2 melanoma, 3.09 µM; in the assay with NCI-H226 lung, 4.86 µM; in the assay on EKVX NSCLC it was 3.29 µM. Further, the TGI with MDA-MB-435 was 3.23 µM; in the assay with SF-268 CNS, 3.22 µM; in the assay with ACHN renal, 3.02 µM; in the assay with NCI-H522 lung, 2.83 µM; with DU-145 prostate it was 3.18 µM.

Take `COc1cc2cc(C(=O)N3CC(CCl)c4ccccc43)[nH]c2c(OC)c1OC` (stereo not drawn): the TGI in the assay on SK-MEL-5 melanoma, in the assay with SNB-75 CNS, in the assay on HOP-92 NSCLC, with SK-MEL-2 melanoma, in the assay on NCI-H226 lung and in the assay with EKVX NSCLC was greater than 100 µM throughout. Further, the TGI with MDA-MB-435, with SF-268 CNS, in the assay with ACHN renal, in the assay on NCI-H522 lung and in the assay on DU-145 prostate was greater than 100 µM each time.

In the case of `COc1cc2c(cc1OC)C(N)CC2=O` (stereo not drawn), the TGI with SK-MEL-5 melanoma, in the assay with SNB-75 CNS, in the assay on HOP-92 NSCLC, in the assay on SK-MEL-2 melanoma, in the assay on NCI-H226 lung and in the assay on EKVX NSCLC was greater than 100 µM throughout. In addition, the TGI in the assay on MDA-MB-435, in the assay on SF-268 CNS, in the assay on ACHN renal, with NCI-H522 lung and in the assay with DU-145 prostate was greater than 100 µM in each case.

With `COc1ccc([C@@]23OC[C@@H]4[C@@H](OC[C@@H]42)c2cc(OC)c(OC)cc23)cc1OC`, the TGI in the assay on SK-MEL-5 melanoma, in the assay with SNB-75 CNS, in the assay with SK-MEL-2 melanoma, with NCI-H226 lung, in the assay on EKVX NSCLC and with MDA-MB-435 was greater than 100 µM each time. The TGI in the assay with ACHN renal, in the assay on NCI-H522 lung and in the assay on DU-145 prostate was greater than 100 µM each time.

For `Cc1ccc(/C=C/C(=O)c2cc(CN(C)C)c(O)c(CN(C)C)c2)cc1`, the TGI is 30.6 µM in the assay on SK-MEL-5 melanoma; 88.9 µM in the assay with SNB-75 CNS; 70.8 µM in the assay with HOP-92 NSCLC; 59.5 µM in the assay on NCI-H226 lung; greater than 100 µM with EKVX NSCLC; 57 µM in the assay on MDA-MB-435. In addition, the TGI with SF-268 CNS was greater than 100 µM; with ACHN renal it was 90.8 µM; with NCI-H522 lung, 31.7 µM; with DU-145 prostate it was greater than 100 µM.

As to `NC(=O)NC(=O)c1cccc(NC(=O)CBr)c1`, the TGI in the assay with SK-MEL-5 melanoma was less than 0.0184 µM; in the assay with SNB-75 CNS, 1.69 µM; with HOP-92 NSCLC it was 1.75 µM; in the assay on SK-MEL-2 melanoma, 1.59 µM; with NCI-H226 lung, 0.067 µM; in the assay on EKVX NSCLC, 6.8 µM. The TGI with MDA-MB-435 was less than 0.0358 µM; in the assay with SF-268 CNS, less than 0.0275 µM; in the assay with ACHN renal it was 1.4 µM; with NCI-H522 lung, less than 0.01 µM; in the assay with DU-145 prostate it was 0.336 µM.

With `O=C(O)CCCOc1cc(-c2ccccc2F)nc2cc3c(cc12)OCO3`, the TGI was greater than 100 µM with SK-MEL-5 melanoma; greater than 100 µM in the assay with SNB-75 CNS; 95.6 µM with HOP-92 NSCLC; greater than 100 µM in the assay with SK-MEL-2 melanoma; greater than 100 µM in the assay on NCI-H226 lung; greater than 100 µM in the assay with EKVX NSCLC. Also, the TGI in the assay with MDA-MB-435, in the assay on SF-268 CNS and with DU-145 prostate was greater than 100 µM each time. The GI50 is 8.51 µM in the assay on NCI-H226 lung and 16.3 µM in the assay with SF-268 CNS.

For the compound `CCOC(=O)/C=C1\c2ccccc2C(=O)N1CC(=O)OCC`, the TGI in the assay on SK-MEL-5 melanoma, in the assay on SNB-75 CNS, in the assay with HOP-92 NSCLC, in the assay with SK-MEL-2 melanoma, in the assay on NCI-H226 lung and in the assay on EKVX NSCLC was greater than 100 µM throughout. The TGI in the assay with MDA-MB-435, in the assay with SF-268 CNS, with ACHN renal, in the assay on NCI-H522 lung and in the assay on DU-145 prostate was greater than 100 µM throughout.

As for `CCOC(=O)/C=C(/C(=O)OCC)n1ccc(=O)n(/C(=C/C(=O)OCC)C(=O)OCC)c1=O`, the TGI in the assay with SK-MEL-5 melanoma was 28.6 µM; with SNB-75 CNS, 32.6 µM; with HOP-92 NSCLC, 4.11 µM; in the assay with SK-MEL-2 melanoma it was 17.6 µM; with NCI-H226 lung, 18.9 µM; with EKVX NSCLC, 36 µM. Besides, the TGI in the assay on MDA-MB-435 amounted to 22.1 µM; in the assay on SF-268 CNS it was 43.9 µM; in the assay on ACHN renal it was 8.06 µM; in the assay on NCI-H522 lung it was 3.53 µM; with DU-145 prostate, 34.9 µM.
